Measured values: patent publication US12522597B2, “Methods and compositions for modulating splicing” (Skyhawk Therapeutics, Inc., priority 2019, dated 2026)

Columns and labels:
[1] = tested on: MDR1-MDCK cell monolayers; assay: MDCK-MDR1 permeability assay (BBB penetration potential); type: in vitro ADME; settings: dog, MDCK-MDR1, 120 min, 5 μM, pH 7.4
Experimental: (§1) Each determination is performed in duplicate. […] Analytical conditions are outlined below.

[2] = tested on: MDR1; assay: as above; type: in vitro ADME; settings: dog; for efflux ratio at 120 min, 5 μM: MDCK-MDR1, pH 7.4, MDCK-MDR1: Efflux; for Papp A→B at 120 min, 5 μM: MDCK-MDR1, pH 7.4, MDCK-MDR1: Papp A-B; for Papp B→A at 120 min, 5 μM: MDCK-MDR1, pH 7.4, MDCK-MDR1: Papp B-A
Experimental: as §1

[3] = tested on: mHTT protein; assay: mHTT protein assay (2B7-MW1, Mesoscale Discovery); type: cell-based, human; settings: GM04724 (CAG 70/20) Huntington's disease patient lymphoblast cells, 48 hours, 2B7-MW1 MSD; read-out: HTT Potency - Protein EC50 mHTT (average)
Experimental: Compounds are tested on GM04724 (CAG 70/20) Huntington's disease patient lymphoblast cells at doses ranging from 10 μM to 0.6 nM. 4,500 cells/well are seeded in 384 well plates. One plate replica is carried out for parallel viability testing by CellTiter Glo (CTG). Compounds are incubated for 48 hours, mHTT protein levels are assessed by the 2B7-MW1 assay via Mesoscale Discovery (MSD) as previously reported (Macdonald et al., 2014). The antibody pair is comprised of previously characterized monoclonals (2B7 and MW1) interrogating two regions for HTT conformation and biological properties: the N17 domain and the polyQ domain (Baldo et al., 2012; Ko et., 2001). 2B7-MW1 is dependent on subject/animal specific levels of HTT at the time of treatment. 2B7-MW1 is dependent on polyQ expansion (e.g., the higher the expansion the higher the signal) and on mHTT size (e.g., a similar polyQ will give higher signal with smaller HTT size). The viability readout is carried out by CTG according to the manufacturer's instructions.

Row | SMILES | MDCK-MDR1: % Recov A-B [1] [%] | MDCK-MDR1: % Recov B-A [1] [%] | efflux ratio at 120 min, 5 μM [2] | Papp A→B at 120 min, 5 μM [2] [×10⁻⁶ cm/s] | Papp B→A at 120 min, 5 μM [2] [×10⁻⁶ cm/s] | EC50 [3] [nM]
1 | Cc1nocc1-c1ccc(-c2ccc(O[C@H]3C[C@@H]4CCC[C@@H](N4)[C@H]3F)nn2)c(O)c1 (single isomer, unassigned) [72-ENT2] | 64 | 74 | 7 | 4.67 | 34.9 | 101 to 500
2 | CNC(=O)c1ccc2cc(-c3ccc(O[C@H]4C[C@]5(C)CCC[C@@](C)(N5)[C@H]4F)nn3)c(O)cc2n1 (single isomer, unassigned) [137-ENT1] | 58 | 70 | 16 | 2.56 | 40.1 | 0.01 to 15
3 | C[C@]12CCC[C@](C)(N1)[C@H](F)[C@H](Oc1ccc(-c3ccc(C#N)cc3O)nn1)C2 (single isomer, unassigned) [145-ENT1] | 82 | 87 | 4 | 9.39 | 42 | 501 to 10000
4 | Oc1cc(-c2nnco2)c(F)cc1-c1ccc(O[C@@H]2C[C@H]3CC[C@H](N3)[C@@H]2F)nn1 (single isomer, unassigned) [142-ENT2] | 101 | 121 | 6 | 9.4 | 54.5 | 51 to 100
5 | N#Cc1ccc(-c2ccc(O[C@H]3C[C@@H]4CCC[C@@H](N4)[C@H]3F)nn2)c(O)c1 (single isomer, unassigned) [110-ENT2] | 95 | 97 | 8 | 7.44 | 56.9 | 501 to 10000
6 | O=c1cc(-c2ccc(-c3ccc(O[C@@H]4C[C@H]5CCC[C@H](N5)[C@@H]4F)nn3)c(O)c2)ccn1CF (single isomer, unassigned) [106-ENT1] | 102 | 90 | 48 | 1.07 | 51 | 101 to 500
7 | Oc1cc(-c2ccn3cnnc3c2)ccc1-c1ccc(O[C@H]2C[C@@H]3CCC[C@@H](N3)[C@H]2F)nn1 (single isomer, unassigned) [86-ENT2] | 75 | 74 | 48 | 0.42 | 20.3 | 101 to 500
8 | Cc1cnc(-c2ccc(-c3ccc(O[C@@H]4C[C@H]5CCC[C@H](N5)[C@@H]4F)nn3)c(O)c2)cn1 (single isomer, unassigned) [78-ENT1] | 65 | 78 | 3 | 7.17 | 24.5 | 101 to 500
9 | O=c1cc(-c2cc(O)c(-c3ccc(O[C@H]4C[C@@H]5CCC[C@@H](N5)[C@H]4F)nn3)cc2F)cc[nH]1 (single isomer, unassigned) [57-ENT2] | 77 | 87 | 90 | 0.35 | 31.3 | 101 to 500
10 | Cn1cc(-c2ccc(-c3ccc(O[C@H]4C[C@@H]5CCC[C@@H](N5)[C@H]4F)nn3)c(O)c2)c(F)n1 (single isomer, unassigned) [109-ENT2] | 51 | 80 | 4 | 6.3 | 24.5 | 16 to 50
11 | Oc1cc2nccnc2cc1-c1ccc(O[C@H]2C[C@@H]3CCC[C@@H](N3)[C@H]2F)nn1 (single isomer, unassigned) [104-ENT2] | 93 | 99 | 5 | 10.1 | 53.6 | 501 to 10000
12 | Oc1cc(-c2ccc3nccn3c2)ccc1-c1ccc(O[C@H]2C[C@@H]3CCC[C@@H](N3)[C@H]2F)nn1 (single isomer, unassigned) [84-ENT2] | 43 | 73 | 14 | 1.63 | 22.8 | 16 to 50
13 | Cn1ccc(=O)c2cc(O)c(-c3ccc(O[C@H]4C[C@]5(C)CCC[C@@](C)(N5)[C@H]4F)nn3)cc21 (stereo in doubt) [132-ENT2, 7-(6-(((1R,2R,3S,5S)-2-fluoro-1,5-dimethyl-9-azabicyclo[3.3.1]nonan-3-yl)oxy)pyridazin-3-yl)-6-hydroxy-1-methylquinolin-4(1H)-one] | 93 | 95 | 126 | 0.11 | 13.4 | 101 to 500
14 | Oc1cc(-c2cnn3ccccc23)ccc1-c1ccc(O[C@H]2C[C@@H]3CCC[C@@H](N3)[C@H]2F)nn1 (single isomer, unassigned) [91-ENT2] | 30 | 48 | 2 | 4.4 | 10.5 | 501 to 10000
15 | Oc1cc(-c2ccc3nncn3c2)ccc1-c1ccc(O[C@@H]2C[C@H]3CCC[C@H](N3)[C@@H]2F)nn1 (single isomer, unassigned) [73-ENT1] | 94 | 85 | 92 | 0.44 | 40.9 | 101 to 500
16 | Cn1cc(-c2cc(O)c(-c3ccc(O[C@H]4C[C@@H]5CCC[C@@H](N5)[C@H]4F)nn3)c(F)c2)cn1 (single isomer, unassigned) [118-ENT2] | 52 | 80 | 8 | 4.5 | 36.8 | 101 to 500
17 | Oc1cc(-c2ccc3cncn3c2)ccc1-c1ccc(O[C@@H]2C[C@H]3CCC[C@H](N3)[C@@H]2F)nn1 (single isomer, unassigned) [85-ENT1] | 33 | 66 | 6 | 2.12 | 12.1 | 101 to 500
18 | Cc1nc(-c2ccc(-c3ccc(O[C@@H]4C[C@H]5CCC[C@H](N5)[C@@H]4F)nn3)c(O)c2)co1 (single isomer, unassigned) [92-ENT1] | 65 | 74 | 5 | 5.99 | 30.9 | 101 to 500
19 | Oc1cc(-c2nnco2)c(F)cc1-c1ccc(O[C@@H]2C[C@H]3CC[C@H](N3)[C@@H]2F)nn1 (stereo in doubt) [142-ENT1, 4-fluoro-2-(6-(((1S,2S,3R,5R)-2-fluoro-8-azabicyclo[3.2.1]octan-3-yl)oxy)pyridazin-3-yl)-5-(1,3,4-oxadiazol-2-yl)phenol] | 98 | 103 | 6 | 6.9 | 41.8 | 51 to 100
20 | Oc1cc(-c2cc[nH]n2)ccc1-c1ccc(O[C@@H]2C[C@H]3CCC[C@H](N3)[C@@H]2F)nn1 (single isomer, unassigned) [66-ENT1] | 79 | 80 | 11 | 0.93 | 10.1 | 51 to 100
21 | Cc1cc(-c2ccc(-c3ccc(O[C@H]4C[C@@H]5CCC[C@@H](N5)[C@H]4F)nn3)c(O)c2)co1 (single isomer, unassigned) [98-ENT2] | 9 | 45 | 3 | 1.07 | 3.23 | 101 to 500
22 | Cc1nnc(-c2ccc(-c3ccc(O[C@H]4C[C@@H]5CCC[C@@H](N5)[C@H]4F)nn3)c(O)c2)s1 (single isomer, unassigned) [95-ENT2] | 78 | 87 | 9 | 3.59 | 33.1 | 101 to 500
23 | Cc1ncn(-c2ccc(-c3ccc(O[C@H]4C[C@@H]5CCC[C@@H](N5)[C@H]4F)nn3)c(O)c2)n1 (single isomer, unassigned) [70-ENT2] | 94 | 105 | 5 | 7.47 | 40.1 | 101 to 500
24 | Oc1cc(-c2nnco2)c(F)cc1-c1ccc(O[C@H]2C[C@@H]3CCC[C@@H](N3)[C@H]2F)nn1 (single isomer, unassigned) [143-ENT1] | 81 | 93 | 8 | 6.56 | 55.7 | 51 to 100
